Key:
Format in all cases: nucleic-acid assay
Nucleic Acid [1] = assay: Binding affinity to 5'-TATA-AGT-TTT-ACT-TATA at 200 uM by HPLC/MS analysis
Nucleic Acid [2] = assay: Binding affinity to 5'-TATA-AGA-TTT-TCT-TATA at 200 uM by HPLC/MS analysis
Nucleic Acid [3] = assay: Binding affinity to 5'-TATA-TGA-TTT-TCA-TATA at 200 uM by HPLC/MS analysis
Nucleic Acid [4] = assay: Binding affinity to 5'-TGT-TATA-TTT-TATA-ACA at 200 uM by HPLC/MS analysis
Nucleic Acid [5] = assay: Binding affinity to 5'-AGT-TATA-TTT-TATA-ACT at 200 uM by HPLC/MS analysis
Nucleic Acid [6] = assay: Binding affinity to 5'-TATA-TGT-TTT-ACA-TATA at 200 uM by HPLC/MS analysis
Nucleic Acid [7] = assay: Binding affinity to 5'-TGA-TATA-TTT-TATA-TCA at 200 uM by HPLC/MS analysis
Nucleic Acid [8] = assay: Binding affinity to 5'-AGA-TATA-TTT-TATA-TCT at 200 uM by HPLC/MS analysis

K (Nucleic Acid [1]): 0.124 µM/min | K (Nucleic Acid [2]): 0.091 µM/min | K (Nucleic Acid [3]): > 0.364 µM/min | K (Nucleic Acid [4]): > 0.808 µM/min | K (Nucleic Acid [5]): 0.096 µM/min | K (Nucleic Acid [6]): > 0.506 µM/min | K (Nucleic Acid [7]): 0.196 µM/min | K (Nucleic Acid [8]): 0.132 µM/min
SMILES: COC(=O)c1cc(NC(=O)c2cc(NC(=O)CCCOc3cc4c(cc3OC)C(=O)N3CCC[C@H]3C=N4)cn2C)cn1C

From ChEMBL document CHEMBL2146450, “DNA Sequence Preference and Adduct Orientation of Pyrrolo[2,1-c][1,4]benzodiazepine Antitumor Agents” (ACS Med Chem Lett, 2010)
